How the values were obtained:
U87 cells = assay: Flow cytometry analysis of U87 cell apoptosis (Annexin V-FITC/PI staining); format: cell-based; details: 20 μM, 24 hours
Description: In a dulbecco's modified eagle medium (DMEM), 5×10^5 U87 cells were inoculated into a 24-hole plate. After culturing for 24 hours, compound 27 (final concentration 20 μM) was directly added to a cell growth medium, incubated at 37° C. for 24 hours, briefly digested with trypsin, washed twice with cold PBS, centrifuged (2000 rpm, 5 min) and washed twice with cold PBS after a supernatant culture medium was discarded. The cells (1×10^5 cells/mL) were resuspended with a 400 μL of buffer solution (1×). 5 μL of Annexin V-FITC was added to the cell suspension and cultured at 4° C. for 15 minutes. Then, the cells were gently mixed with another dye propidium iodide (PI) (10 μL). The cells were collected for flow cytometry analysis. Data analysis was performed by using a CFLow Plus (Accuri Cytometers).
In order to further confirm the occurrence of apoptosis, the applicant tested the exposed phosphatidylserine by using an annexin V/propidium iodide double staining method, and observed a cell membrane damage phenomenon.

U87MG tumor = U87MG tumor growth and survival in mice after various treatments; format: in vivo, nude mouse
Description: In all different experimental groups (a and b in FIG. 10), the overall survival (OS) of mice treated with TMZ and compound 27 is the best. […] However, mouse death caused by glioma is reduced only 20 days […] treatment. After this period of time, the survival rates of the in-situ U87 heterogeneous tumor of the two single drug groups decreases rapidly due to malignant glioma.

hexokinase 2 (HK2) = molecular target: T1, hexokinase 2 (HK2) (Homo sapiens, UniProt P52789); assay: HK2 activity test on GLMSD platform (graphite dots MALDI-MS); format: biochemical
T1 sequence (P52789 1-917): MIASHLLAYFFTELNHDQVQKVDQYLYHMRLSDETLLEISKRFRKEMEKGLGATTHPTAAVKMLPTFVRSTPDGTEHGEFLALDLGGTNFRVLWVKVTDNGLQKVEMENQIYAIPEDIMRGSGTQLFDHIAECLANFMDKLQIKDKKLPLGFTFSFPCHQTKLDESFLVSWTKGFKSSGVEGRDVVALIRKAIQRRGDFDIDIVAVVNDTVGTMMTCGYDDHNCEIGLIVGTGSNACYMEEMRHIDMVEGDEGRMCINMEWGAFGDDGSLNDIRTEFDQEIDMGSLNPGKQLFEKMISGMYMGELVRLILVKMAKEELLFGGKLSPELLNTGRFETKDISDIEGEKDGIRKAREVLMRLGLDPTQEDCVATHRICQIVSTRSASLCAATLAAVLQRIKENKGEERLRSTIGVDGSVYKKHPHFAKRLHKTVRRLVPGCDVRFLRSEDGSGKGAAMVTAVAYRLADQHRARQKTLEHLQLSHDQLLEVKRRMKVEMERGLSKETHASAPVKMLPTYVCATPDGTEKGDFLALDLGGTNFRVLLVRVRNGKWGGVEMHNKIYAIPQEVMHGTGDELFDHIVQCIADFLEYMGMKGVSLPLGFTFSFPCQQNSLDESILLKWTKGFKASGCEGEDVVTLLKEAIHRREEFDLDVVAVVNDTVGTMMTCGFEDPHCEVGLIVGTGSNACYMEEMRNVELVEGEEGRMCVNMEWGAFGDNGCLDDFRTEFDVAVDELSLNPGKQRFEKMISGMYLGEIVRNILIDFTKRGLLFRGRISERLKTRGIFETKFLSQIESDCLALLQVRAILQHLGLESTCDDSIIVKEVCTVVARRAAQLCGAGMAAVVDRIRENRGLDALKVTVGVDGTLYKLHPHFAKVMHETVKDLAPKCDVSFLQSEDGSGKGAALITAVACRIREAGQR
Description: GDs were dispersed in water at a concentration of 1 mg/mL as a matrix solution to be used. A sample was prepared by using a quick-drying method: firstly, 1 μL of matrix solution was dropped onto a target plate, and after natural drying at a room temperature in a […], 1 μL of sample to be analyzed was dropped onto a surface of the dried matrix, and after the sample was naturally dried, mass spectrometry was directly performed:
An instrument in the MALDI-MS was a Bruker Ultraflex III TOF/TOF mass spectrometer, which was mainly in a reflection positive and negative ion mode. Nd of 355 nm for instrument parameter: YAG laser had laser energy of 30% corresponding to 57 μJ per pulse (laser pulse duration: 3 ns), a laser spot size was about 50-100 μm, each sample was repeatedly tested four times, and 3000 laser spots were accumulated in each mass spectrum. All samples were measured under the same instrumental conditions.
an inhibition rate=(1−B/A)×100%, where • A was: a glucose concentration in a pre-reaction solution without the inhibitor-a glucose concentration in a post-reaction solution without the inhibitor, • B was: a glucose concentration in a pre-reaction solution with the inhibitor-a glucose concentration in a post-reaction solution with the inhibitor, and • a glucose concentration in the reaction solution=(mass spectrum signal strength of [glucose+Na]+/mass spectrum signal strength of [glucose-1-^13C+Na]+)×known concentration of glucose-1-^13C.

[1] = tested on: cranial nerve glioma cell U87; assay: Antiproliferative activity against cranial nerve glioma cell U87; format: cell-based; details: Homo sapiens, U-87 MG; U87 cells; read-out: concentration at which half of the tumor cells are killed
Description: FIG. 14 is an antiproliferative activity test diagram of compound 8, compound 11, compound 13, and compound 21 against a cranial nerve glioma cell U87.

[2] = tested on: U87 cell transplantation tumor (brain glioma); assay: MSI imaging of drug in brain tissue section (blood-brain barrier penetration); format: in vivo; details: MSI of brain tissue section with U87 glioma implant
Description: FIG. 9 is an MSI image of a drug and a metabolite (compound 27: m/z 499, lactic acid: m/z 113) in a brain tissue section, where an optical micrograph of a serial section of H&E staining is used as a reference. The brain glioma and the lateral ventricle are represented by dashed lines, a color bar encodes signal strength of […] small molecules in […] (MSI), and the resolution is 10 μm.

CCOc1ccc(C(=O)NCCCN(C)CCCN(C)Cc2ccccc2)cc1Br [compound 27]
early (Annexin+/PI−) apoptotic cells (U87 cells): 31.2% | late (Annexin+/PI+) apoptotic cells (U87 cells): 30.6% | growth of solid tumors (U87MG tumor; U87MG subcutaneous tumor, nude mouse): can inhibit growth of solid tumors | glioma growth / survival rate, bioluminescence tracking (U87MG tumor; in situ U87-luciferase mice, compared with PBS): delays the growth of glioma | median survival time (U87MG tumor; mice with U87MG tumor, n=6 per group): 30 days | inhibitory effect on the HK2 (hexokinase 2 (HK2); inhibition curves FIGS. 3-7, colorimetric kit and GLMSD): good inhibitory effects | inhibition at 20 µM (hexokinase 2 (HK2); small-molecule concentration of the inhibitor 20 μM, GLMSD, read-out: inhibition rate of HK2 activity): 31% | IC50 [1]: 11.3 µM | capacity of penetrating a blood-brain barrier [2]: can break through the blood-brain barrier

Reference: US20230414571A1, “APPLICATION OF SMALL-MOLECULE COMPOUND IN PREPARATION OF ANTITUMOR DRUG” (SOOCHOW UNIVERSITY, priority 2021, published 2023)
